The results in this text go back to ChEMBL document CHEMBL4831514, “Novel betulin dicarboxylic acid ester derivatives as potent antiviral agents: Design, synthesis, biological evaluation, structure-activity relationship and in-silico study” (Eur J Med Chem, 2021).

In data set [1] the test system is Human alphaherpesvirus 1. In words: Antiviral activity against Human herpesvirus 1 MacIntyre infected in A549 cells assessed as reduction in virus titer preincubated for 24 hrs followed by viral infection and measured after 72 hrs by microscopic analysis. Format: functional, organism-based.
Data set [2] has as its system A549. In words: (§1) Cytotoxicity against human A549 cells assessed as reduction in cell viability incubated for 48 hrs by MTT assay. Format: cell-based. The settings on record: a549, 48 h.
In data set [3] the test system is Human alphaherpesvirus 1. In words: Antiviral activity against Human herpesvirus-1 MacIntyre infected in A549 cells assessed as inhibition of viral adsorption at early stage of replication treated for 1 hr during viral infection followed by replacement with fresh medium and measured after 48 hrs by MTT assay. Format: functional, organism-based. For orientation: Tetrazolium dyes change colour on reduction, which living cells bring about.

In data set [4] the test system is Enterovirus E. In words: Antiviral activity against Enterovirus E LCR-4 infected in A549 cells assessed as inhibition of viral adsorption at early stage of replication treated for 1 hr during viral infection followed by replacement with fresh medium and measured after 72 hrs by MTT assay. Format: functional, organism-based.
The subject of data set [5] is Vesicular stomatitis virus. In words: Antiviral activity against Vesicular stomatitis virus Indiana infected in A549 cells assessed as reduction in virus titer preincubated for 24 hrs followed by viral infection and measured after 72 hrs by microscopic analysis. Format: functional, organism-based.
Data set [6] deals with Human adenovirus 5. In words: Antiviral activity against Human adenovirus 5 Adenoid 75 infected in A549 cells assessed as inhibition of viral adsorption at early stage of replication treated for 1 hr during viral infection followed by replacement with fresh medium and measured after 72 hrs by MTT assay. Format: functional, organism-based.
In data set [7] the test system is MDCK. Nature of the data set: (§2) Cytotoxicity against MDCK cells assessed as reduction in cell viability incubated for 72 hrs by MTT assay. Format: cell-based, Canis lupus familiaris. Particulars: dog, mdck, 72 h.
A short description of data set [8]: as §2. The settings on record: dog, MDCK cells. Format: cell-based, Canis lupus familiaris.
The test system of data set [9] is Human adenovirus 5. In words: Antiviral activity against Human adenovirus 5 Adenoid 75 infected in A549 cells assessed as reduction in virus titer preincubated for 24 hrs followed by viral infection and measured after 72 hrs by microscopic analysis. Format: functional, organism-based.
The nature of data set [10]: Selectivity index, ratio of CC50 for cytotoxicity against human A549 cells to EC50 for antiviral activity against Human herpesvirus 1 MacIntyre infected in A549 cells assessed as reduction in virus titer treated 1 hr post viral infection followed by replacement with fresh medium with compounds and measured after 72 hrs by MTT assay. Particulars: read-out: Selectivity Index. Format: toxicity, cell-based.

A short description of data set [11]: as §1. The settings on record: A549 cells. Format: cell-based.
Data set [12] in a line: Selectivity index, ratio of CC50 for cytotoxicity against human A549 cells to EC50 for antiviral activity against Enterovirus E LCR-4 infected in A549 cells. Format: toxicity, cell-based. The settings on record: read-out: Selectivity Index.
Data set [13] deals with Human alphaherpesvirus 1. In words: Antiviral activity against Human herpesvirus 1 MacIntyre infected in A549 cells assessed as reduction in virus titer treated 1 hr post viral infection followed by replacement with fresh medium with compounds and measured after 48 hrs by MTT assay. Format: functional, organism-based. Particulars: Human alphaherpesvirus 1, MacIntyre.
The nature of data set [14]: Selectivity index, ratio of CC50 for cytotoxicity against human A549 cells to EC50 for antiviral activity against Enterovirus E LCR-4 infected in A549 cells assessed as reduction in virus titer treated 1 hr post viral infection followed by replacement with fresh medium with compounds and measured after 72 hrs by MTT assay. Format: toxicity, cell-based. Particulars: read-out: Selectivity Index.

Data set [15] concerns Enterovirus E. Nature of the data set: Antiviral activity against Enterovirus E LCR-4 infected in A549 cells assessed as reduction in virus titer treated 1 hr post viral infection followed by replacement with fresh medium with compounds and measured after 72 hrs by MTT assay. Format: functional, organism-based. The settings on record: LCR-4, A549.
In data set [16] the test system is Enterovirus E. In words: Potency index, ratio of ribavirin EC50 to test compound EC50 for antiviral activity against Enterovirus E LCR-4 infected in A549 cells assessed as reduction in virus titer treated 1 hr post viral infection followed by replacement with fresh medium with compounds and measured after 72 hrs by MTT assay. Format: functional.
The test system of data set [17] is Human alphaherpesvirus 1. Nature of the data set: Potency index, ratio of acyclovir EC50 to test compound EC50 for antiviral activity against Human herpesvirus 1 MacIntyre infected in A549 cells assessed as reduction in virus titer treated 1 hr post viral infection followed by replacement with fresh medium with compounds and measured after 48 hrs by MTT assay. Format: functional.

Data set [18] relates to Enterovirus E. In words: Potency index, ratio of […] EC50 to test compound EC50 for antiviral activity against Enterovirus E LCR-4 infected in A549 cells assessed as reduction in virus titer preincubated for 24 hrs followed by viral infection and measured after 72 hrs by microscopic analysis. Particulars: time 96 hrs. Format: functional.
Data set [19] deals with Enterovirus E. In words: Antiviral activity against Enterovirus E LCR-4 infected in A549 cells assessed as reduction in virus titer preincubated for 24 hrs followed by viral infection and measured after 72 hrs by microscopic analysis. Particulars: LCR-4, A549. Format: functional, organism-based.

Activity calls are given as the source filed them. The calls are words filed in the database; no cut-off is given here.

In general, CC50 refers to the concentration at which the toxic effect on the cells reaches its halfway point. For `C=C(C)[C@@H]1CC[C@]2(COC(=O)CSCC(=O)O)CC[C@]3(C)[C@H](CC[C@@H]4[C@@]5(C)CC[C@H](O)C(C)(C)[C@@H]5CC[C@]43C)[C@@H]12`, the result in [1], in [3], in [4], in [5], in [6] and in data set [9] was inactive. Also, the CC20 in [2] and in data set [7] was 21.08 µM each time. Besides, in [8], the CC50 at 72 h is 42.2 µM.
By EC50 is commonly meant the concentration that produces a half-maximal response. Regarding `Nc1nc2c(ncn2COCCO)c(=O)[nH]1` [ACYCLOVIR], the selectivity ratio at 72 h in data set [10] was 14. Further, in data set [11], the CC50 at 48 h worked out at 1560 µM. Moreover, the CC20 in data set [2] was found to be 196.08 µM. For the same molecule, the outcome in [3], in data set [4] and in [6] was inactive. For the same molecule, the selectivity ratio in data set [12] was 7. Also, the EC50 in data set [13] was 111 µM.
Take `CCOC(=O)C1=C[C@@H](OC(CC)CC)[C@H](NC(C)=O)[C@@H](N)C1` [OSELTAMIVIR]: the CC20 in data set [7] was found to be 320.51 µM. Further, in [8], the CC50 at 72 h is 7870 µM.
Regarding `C#CC1(NC(=O)/C(C)=C/C(=O)OC[C@]23CC[C@@H](C(=C)C)[C@@H]2[C@H]2CC[C@@H]4[C@@]5(C)CC[C@H](O)C(C)(C)[C@@H]5CC[C@@]4(C)[C@]2(C)CC3)CCCCC1`, the outcome in data set [1], in data set [3], in data set [4], in [5], in data set [6] and in [9] was inactive. Also, the CC20 in data set [2] and in data set [7] was 54.47 µM in each case. In data set [8], the CC50 at 72 h was found to be 54.5 µM.
`NC(=O)c1ncn([C@@H]2O[C@H](CO)[C@@H](O)[C@H]2O)n1` [RIBAVIRIN]: in data set [14], the selectivity ratio at 72 h came out at 74.3. For the same molecule, the CC50 at 48 h in data set [11] is 7610 µM. In addition, the CC20 in data set [2] stood at 409.84 µM. The outcome in data set [3], in data set [4] and in [6] was inactive. For the same molecule, the EC50 in data set [15] is 102 µM.
Regarding `C=C(C)[C@@H]1CC[C@]2(COC(=O)CCCCCCCCCC(=O)O)CC[C@]3(C)[C@H](CC[C@@H]4[C@@]5(C)CC[C@H](O)C(C)(C)[C@@H]5CC[C@]43C)[C@@H]12`, the outcome in [1], in data set [3], in [4], in [5], in data set [6] and in data set [9] was inactive. In addition, the selectivity ratio at 72 h in data set [14] was found to be 2.9. The CC50 at 48 h in data set [11] is 29.4 µM. Also, the CC20 in data set [2] is 5.09 µM; in data set [7] it was 10.2 µM. The “Ratio EC50” value in [16] came out at 10. For the same molecule, the EC50 in data set [15] was 10.3 µM.
In the case of `C=C(C)[C@@H]1CC[C@]2(COC(=O)c3ccccc3C(=O)N3CCSCC3)CC[C@]3(C)[C@H](CC[C@@H]4[C@@]5(C)CC[C@H](O)C(C)(C)[C@@H]5CC[C@]43C)[C@@H]12`, the outcome in data set [1], in [3], in [4], in data set [5], in data set [6] and in data set [9] was inactive. Besides, the selectivity ratio at 72 h in data set [10] is 11.8. Also, the CC50 at 48 h in data set [11] worked out at 350 µM. The CC20 in data set [2] was found to be 58.9 µM; in data set [7] it was 7.3 µM. The EC50 in [13] was determined as 29.6 µM. The “Ratio EC50” value in [17] is listed as 3.
For the molecule `C=C(C)[C@@H]1CC[C@]2(COC(=O)CCCC(=O)N3CCOCC3)CC[C@]3(C)[C@H](CC[C@@H]4[C@@]5(C)CC[C@H](O)C(C)(C)[C@@H]5CC[C@]43C)[C@@H]12`, the outcome in data set [1], in data set [3], in [4], in data set [5], in [6] and in [9] was inactive. Also, the selectivity ratio at 72 h in data set [10] was found to be 8. In addition, in [11], the CC50 at 48 h was 151 µM. Further, the CC20 in data set [2] and in data set [7] was 18.85 µM each time. Further, the EC50 in data set [13] was determined as 18.9 µM. Further, the “Ratio EC50” value in data set [17] came out at 3.
For `C#CCNC(=O)c1ccccc1C(=O)OC[C@]12CC[C@@H](C(=C)C)[C@@H]1[C@H]1CC[C@@H]3[C@@]4(C)CC[C@H](O)C(C)(C)[C@@H]4CC[C@@]3(C)[C@]1(C)CC2`, the result in data set [1], in [3], in data set [4], in [5], in data set [6] and in [9] was inactive. In addition, the CC50 at 48 h in data set [11] is 159 µM. Besides, the results for the CC20 in data set [2] and in [7] were 39.81 µM and 159.24 µM, respectively. Also, the selectivity ratio in [12] is 8. The “Ratio EC50” value in data set [18] stood at 11. Besides, the EC50 in data set [19] came out at 19.9 µM.
For the molecule `C=C(C)[C@@H]1CC[C@]2(COC(=O)c3ccccc3C(=O)N3CCOCC3)CC[C@]3(C)[C@H](CC[C@@H]4[C@@]5(C)CC[C@H](O)C(C)(C)[C@@H]5CC[C@]43C)[C@@H]12`, the result in [1], in data set [3], in [4], in data set [5], in data set [6] and in [9] was inactive. Also, the selectivity ratio at 72 h in [10] is 4. Besides, the CC50 at 48 h in [11] is 144 µM. In addition, the CC20 was 35.87 µM in data set [2] and 143.47 µM in [7]. The EC50 in [13] is 35.9 µM. Further, in data set [17], the “Ratio EC50” value came out at 3.
Regarding `C=C(C)[C@@H]1CC[C@]2(COC(=O)CCCC(=O)O)CC[C@]3(C)[C@H](CC[C@@H]4[C@@]5(C)CC[C@H](O)C(C)(C)[C@@H]5CC[C@]43C)[C@@H]12`, the result in [1], in data set [3], in data set [4], in data set [5], in data set [6] and in [9] was inactive. For the same molecule, in data set [10], the selectivity ratio at 72 h came out at 3.6. The CC50 at 48 h in [11] is 80.8 µM. The CC20 in data set [2] stood at 22.44 µM; in data set [7] it was 11.22 µM. In addition, the EC50 in data set [13] is 22.4 µM. Further, in data set [17], the “Ratio EC50” value stood at 3.
Regarding `C=C(C)[C@@H]1CC[C@]2(COC(=O)c3cccc(C(=O)N4CCCCC4)c3)CC[C@]3(C)[C@H](CC[C@@H]4[C@@]5(C)CC[C@H](O)C(C)(C)[C@@H]5CC[C@]43C)[C@@H]12`, the result in [1], in [3], in data set [4], in [5], in data set [6] and in [9] was inactive. For the same molecule, the CC50 at 48 h in data set [11] is 536 µM. The CC20 in data set [2] and in data set [7] was 130.89 µM throughout. Moreover, the selectivity ratio in data set [12] worked out at 8.2. Also, in data set [18], the “Ratio EC50” value was 3. For the same molecule, the EC50 in data set [19] came to 65.4 µM.
